Results: ChEMBL document CHEMBL5360658, “Discovery of MK-8768, a Potent and Selective mGluR2 Negative Allosteric Modulator” (ACS Med Chem Lett, 2023)
Converted amounts (≈) assume the structure as drawn.

Columns and labels:
[1] = Solubility of the compound at pH 7; format: physicochemical; details: buffer
[2] = Oral bioavailability in rat; format: ADME, organism-based; details: in vivo
[3] = target: T1, Nuclear receptor subfamily 1 group I member 2 (Homo sapiens, UniProt O75469); assay: Agonist activity at PXR (unknown origin)
T1 sequence (O75469 whole entry): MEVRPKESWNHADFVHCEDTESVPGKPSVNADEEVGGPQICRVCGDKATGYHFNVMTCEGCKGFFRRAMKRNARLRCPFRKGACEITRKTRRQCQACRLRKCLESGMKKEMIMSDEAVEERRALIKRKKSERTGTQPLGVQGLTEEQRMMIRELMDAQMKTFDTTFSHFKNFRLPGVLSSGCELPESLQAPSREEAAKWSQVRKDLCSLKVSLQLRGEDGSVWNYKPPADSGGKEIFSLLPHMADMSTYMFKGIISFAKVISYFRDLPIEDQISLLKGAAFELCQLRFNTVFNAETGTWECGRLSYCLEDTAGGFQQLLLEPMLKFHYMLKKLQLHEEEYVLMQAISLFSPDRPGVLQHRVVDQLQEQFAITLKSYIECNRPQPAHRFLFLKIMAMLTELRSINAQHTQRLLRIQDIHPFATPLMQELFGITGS

[4] = Apparent permeability in […] LLC-MDR1 cell; format: ADME, cell-based; details: LLC-PK1
[5] = target: Voltage-gated inwardly rectifying potassium channel KCNH2 (Homo sapiens, UniProt Q12809); assay: Displacement of [35S]-MK-499 from hERG expressed in HEK293 cells […]; format: toxicity, cell-based
PXR (NR1I2) = target: T2, PXR (NR1I2) (Homo sapiens, UniProt O75469); assay: Agonist activity at PXR (unknown origin) assessed as maximal efficacy at 30 uM
T2 sequence (O75469 whole entry): T1 sequence (O75469 whole entry)

[6] = target: Metabotropic glutamate receptor 3 (Homo sapiens, UniProt Q14832); assay: Negative allosteric modulation at mGluR3 receptor (unknown origin) assessed as effect on intracellular calcium flux measured after 5 min by Fluo-4AM dye based FLIPR analysis; format: functional, cell-based
[7] = target: Sodium channel protein type 5 subunit alpha (Homo sapiens, UniProt Q14524); assay: Inhibition of NaV 1.5 channel (unknown origin) by automated patch-clamp assay
[8] = target: Voltage-dependent L-type calcium channel subunit alpha-1C (Homo sapiens, UniProt Q13936); assay: Inhibition of Cav1.2 (unknown origin)
[9] = Oral bioavailability in rat at 20 mg/kg; format: ADME, organism-based; details: in vivo
[10] = target: Metabotropic glutamate receptor 2 (Homo sapiens, UniProt Q14416); assay: Negative allosteric modulation at human mGluR2 receptor stably expressed in DHFR null CHO cells co-expressing Galpha16 assessed as effect on intracellular calcium flux measured after 5 min by Fluo-4AM dye based FLIPR analysis; format: functional, cell-based
P-gp (ABCB1) = P-gp (ABCB1) (Rattus norvegicus, UniProt P43245); assay: Substrate activity at rat P-gp […] in […] LLC-MDR1 cells assessed as efflux ratio of apparent permeability across basolateral to apical over apical to basolateral side; format: ADME, cell-based, LLC-MDR1 cell; details: LLC-PK1
Chain of P-gp (ABCB1) (P43245 whole entry): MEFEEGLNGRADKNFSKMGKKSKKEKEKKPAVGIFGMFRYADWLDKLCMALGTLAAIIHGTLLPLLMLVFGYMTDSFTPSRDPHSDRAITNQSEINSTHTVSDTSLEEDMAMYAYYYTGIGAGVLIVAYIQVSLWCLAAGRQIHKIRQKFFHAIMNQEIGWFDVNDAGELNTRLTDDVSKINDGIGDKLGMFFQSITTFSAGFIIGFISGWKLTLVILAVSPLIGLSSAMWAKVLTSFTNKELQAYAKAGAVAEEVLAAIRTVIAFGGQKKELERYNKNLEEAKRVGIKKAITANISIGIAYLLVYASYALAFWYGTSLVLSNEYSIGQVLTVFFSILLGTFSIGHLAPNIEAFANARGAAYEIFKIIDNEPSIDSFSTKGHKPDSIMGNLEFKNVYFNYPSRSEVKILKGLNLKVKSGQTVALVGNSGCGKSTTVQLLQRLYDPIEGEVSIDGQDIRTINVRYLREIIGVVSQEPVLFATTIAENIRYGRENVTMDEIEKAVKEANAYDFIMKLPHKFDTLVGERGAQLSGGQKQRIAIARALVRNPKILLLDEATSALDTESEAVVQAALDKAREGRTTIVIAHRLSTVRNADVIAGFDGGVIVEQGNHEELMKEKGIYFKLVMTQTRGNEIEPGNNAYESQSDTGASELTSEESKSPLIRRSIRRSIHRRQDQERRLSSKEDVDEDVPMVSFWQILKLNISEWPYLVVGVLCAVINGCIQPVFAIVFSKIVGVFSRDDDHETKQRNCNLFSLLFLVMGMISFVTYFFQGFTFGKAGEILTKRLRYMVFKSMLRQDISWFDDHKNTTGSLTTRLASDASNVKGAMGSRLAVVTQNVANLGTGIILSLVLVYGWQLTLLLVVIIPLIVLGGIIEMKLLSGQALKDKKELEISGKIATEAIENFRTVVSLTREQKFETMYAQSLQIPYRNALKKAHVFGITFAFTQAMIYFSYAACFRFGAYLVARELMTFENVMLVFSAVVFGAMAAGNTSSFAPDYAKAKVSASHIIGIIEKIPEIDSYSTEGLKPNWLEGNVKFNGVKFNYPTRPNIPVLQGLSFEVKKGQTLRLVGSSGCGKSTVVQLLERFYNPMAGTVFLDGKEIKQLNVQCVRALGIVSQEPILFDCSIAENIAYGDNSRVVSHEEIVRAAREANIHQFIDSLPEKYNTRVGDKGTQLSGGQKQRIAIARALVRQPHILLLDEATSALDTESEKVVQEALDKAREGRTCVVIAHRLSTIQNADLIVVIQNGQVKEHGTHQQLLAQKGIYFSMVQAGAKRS

Chain of Voltage-gated inwardly rectifying potassium channel KCNH2 (Q12809 whole entry): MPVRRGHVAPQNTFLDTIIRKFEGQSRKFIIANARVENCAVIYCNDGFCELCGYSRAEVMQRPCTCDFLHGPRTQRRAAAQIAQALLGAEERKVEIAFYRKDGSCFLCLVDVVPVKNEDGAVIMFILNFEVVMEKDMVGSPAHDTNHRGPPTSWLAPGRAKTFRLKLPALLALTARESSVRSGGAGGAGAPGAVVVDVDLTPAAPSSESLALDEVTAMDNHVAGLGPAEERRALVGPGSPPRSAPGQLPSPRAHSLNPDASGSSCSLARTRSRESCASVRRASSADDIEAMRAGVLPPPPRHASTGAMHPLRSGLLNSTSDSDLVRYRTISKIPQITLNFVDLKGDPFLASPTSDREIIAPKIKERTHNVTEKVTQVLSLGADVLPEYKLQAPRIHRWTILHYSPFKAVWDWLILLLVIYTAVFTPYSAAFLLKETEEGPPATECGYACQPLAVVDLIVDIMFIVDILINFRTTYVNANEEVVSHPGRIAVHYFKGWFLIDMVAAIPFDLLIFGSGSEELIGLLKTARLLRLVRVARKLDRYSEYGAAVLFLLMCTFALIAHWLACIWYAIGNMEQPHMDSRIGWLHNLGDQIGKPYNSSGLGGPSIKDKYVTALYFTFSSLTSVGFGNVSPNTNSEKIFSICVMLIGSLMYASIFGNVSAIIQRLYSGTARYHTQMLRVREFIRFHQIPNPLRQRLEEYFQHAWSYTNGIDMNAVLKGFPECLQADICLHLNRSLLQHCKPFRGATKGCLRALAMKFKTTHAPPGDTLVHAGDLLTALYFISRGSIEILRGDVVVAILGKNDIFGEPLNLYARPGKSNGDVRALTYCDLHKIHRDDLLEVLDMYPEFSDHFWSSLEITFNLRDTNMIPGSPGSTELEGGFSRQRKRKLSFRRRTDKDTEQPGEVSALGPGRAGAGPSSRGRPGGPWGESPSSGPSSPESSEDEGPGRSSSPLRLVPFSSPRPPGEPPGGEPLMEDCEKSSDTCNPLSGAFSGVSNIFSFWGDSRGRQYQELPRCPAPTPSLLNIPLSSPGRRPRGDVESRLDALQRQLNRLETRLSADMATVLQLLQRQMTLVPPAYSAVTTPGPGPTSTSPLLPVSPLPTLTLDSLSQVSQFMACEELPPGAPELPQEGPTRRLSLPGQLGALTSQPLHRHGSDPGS
Chain of Metabotropic glutamate receptor 2 (Q14416 whole entry): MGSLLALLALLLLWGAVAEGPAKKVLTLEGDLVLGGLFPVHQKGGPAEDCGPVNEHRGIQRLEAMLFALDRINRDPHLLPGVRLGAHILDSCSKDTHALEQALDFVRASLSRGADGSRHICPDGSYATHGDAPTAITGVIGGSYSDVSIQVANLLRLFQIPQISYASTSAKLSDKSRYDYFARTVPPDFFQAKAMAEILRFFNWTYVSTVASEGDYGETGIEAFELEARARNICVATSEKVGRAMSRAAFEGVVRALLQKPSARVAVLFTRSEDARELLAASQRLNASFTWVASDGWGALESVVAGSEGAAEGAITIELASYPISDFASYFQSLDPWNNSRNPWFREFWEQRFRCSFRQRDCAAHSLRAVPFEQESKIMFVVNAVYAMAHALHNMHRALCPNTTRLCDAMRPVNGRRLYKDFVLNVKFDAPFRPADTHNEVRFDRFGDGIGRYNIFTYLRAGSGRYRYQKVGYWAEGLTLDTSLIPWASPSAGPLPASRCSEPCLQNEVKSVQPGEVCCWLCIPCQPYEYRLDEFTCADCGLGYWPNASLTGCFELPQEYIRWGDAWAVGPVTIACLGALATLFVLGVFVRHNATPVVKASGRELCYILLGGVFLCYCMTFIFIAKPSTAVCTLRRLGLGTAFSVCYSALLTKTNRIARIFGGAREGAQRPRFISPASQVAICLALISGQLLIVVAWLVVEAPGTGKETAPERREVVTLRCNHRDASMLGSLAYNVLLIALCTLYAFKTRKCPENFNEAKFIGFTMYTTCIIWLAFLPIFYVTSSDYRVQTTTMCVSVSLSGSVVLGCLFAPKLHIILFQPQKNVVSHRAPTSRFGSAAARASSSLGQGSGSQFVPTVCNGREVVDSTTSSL
Chain of Metabotropic glutamate receptor 3 (Q14832 whole entry): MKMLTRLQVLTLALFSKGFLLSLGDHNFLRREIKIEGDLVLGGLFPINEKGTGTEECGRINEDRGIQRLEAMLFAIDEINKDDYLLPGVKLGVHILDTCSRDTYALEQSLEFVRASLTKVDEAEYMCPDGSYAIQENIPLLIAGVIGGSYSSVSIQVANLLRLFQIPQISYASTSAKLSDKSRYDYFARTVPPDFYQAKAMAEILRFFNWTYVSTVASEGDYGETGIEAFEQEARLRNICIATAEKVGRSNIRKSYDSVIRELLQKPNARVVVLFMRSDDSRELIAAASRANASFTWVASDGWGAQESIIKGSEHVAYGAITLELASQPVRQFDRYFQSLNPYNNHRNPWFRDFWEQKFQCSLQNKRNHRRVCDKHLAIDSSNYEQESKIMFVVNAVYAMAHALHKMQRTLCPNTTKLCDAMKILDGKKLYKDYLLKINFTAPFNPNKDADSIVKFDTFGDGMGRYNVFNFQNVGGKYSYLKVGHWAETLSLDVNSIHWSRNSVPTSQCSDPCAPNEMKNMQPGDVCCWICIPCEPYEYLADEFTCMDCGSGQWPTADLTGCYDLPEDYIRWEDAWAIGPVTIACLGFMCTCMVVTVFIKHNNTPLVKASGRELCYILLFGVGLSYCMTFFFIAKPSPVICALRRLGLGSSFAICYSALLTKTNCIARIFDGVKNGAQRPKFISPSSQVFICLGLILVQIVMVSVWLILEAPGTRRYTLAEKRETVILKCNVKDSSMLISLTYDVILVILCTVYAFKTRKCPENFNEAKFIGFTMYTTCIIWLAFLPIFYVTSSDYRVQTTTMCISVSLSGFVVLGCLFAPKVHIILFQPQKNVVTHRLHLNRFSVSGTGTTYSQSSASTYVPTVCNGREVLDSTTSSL

| Structure (SMILES) | solubility ([1]; read-out: solubility) [µM] | EC50 [3] [µM] | Papp [4] [×10⁻⁶ cm/s] | Emax at 30 µM (PXR (NR1I2)) [%] | IC50 [5] [µM] | further results |
| --- | --- | --- | --- | --- | --- | --- |
| NC(=O)c1cc(-c2ccc(F)cc2)c2ccc(CN3C(=O)CCC3=O)cc2n1 |  |  |  |  |  | solubility [1]: 4 µM (≈ 1.51 µg/mL); bioavailability [2]: 100% |
| NC(=O)c1cc(-c2ccc(F)cc2)c2ccc(CCc3cncnc3)cc2n1 | < 1 | > 30 | 31 | 47 | > 60 |  |
| NC(=O)c1cc(-c2ccc(F)cc2)c2ccc(CN3CCOC3=O)cc2n1 | 127 (≈ 46.4 µg/mL) | 9.7 | 36 | 95 | 14 |  |
| NC(=O)c1cc(N2CCOCC2)c2ccc(CN3C(=O)CCC3=O)cc2n1 | 157 (≈ 57.8 µg/mL) |  | 35 |  | 17 |  |
| CN(C)C(=O)C(C)(C)c1ccc2c(-c3ccc(F)cc3)cc(C(N)=O)nc2c1 | < 2 | 3.5 | 38 | 110 | 40 |  |
| Cn1ccc(CCc2ccc3c(-c4ccc(F)cc4)cc(C(N)=O)nc3c2)n1 | < 1 | 9.2 | 25 | 97 | 2.9 |  |
| CN1CC=C(c2cc(C(N)=O)nc3cc(CN4C(=O)CCC4=O)ccc23)CC1 | 203 (≈ 76.8 µg/mL) |  | 38 |  |  | IC50 [10]: 4.03 µM; efflux ratio (P-gp (ABCB1)): 19 |
| Cc1ncc(-c2cc(C(N)=O)nc3cc(CN4C(=O)CCC4=O)ccc23)s1 | 64 (≈ 24.3 µg/mL) | 6 |  | 137 | > 60 |  |
| Cn1cc(Cc2ccc3c(-c4ccc(F)cc4)cc(C(N)=O)nc3c2)cn1 | 4 (≈ 1.44 µg/mL) | > 30 | 31 | 21 | 3.5 |  |
| Cc1cc(NCc2ccc3c(-c4ccc(F)cc4)cc(C(N)=O)nc3c2)no1 | 3 (≈ 1.13 µg/mL) | > 30 | 30 | 49 | 3.3 |  |
| Cc1ncc(NCc2ccc3c(-c4ccc(F)cc4)cc(C(N)=O)nc3c2)cn1 | 7 (≈ 2.71 µg/mL) | > 30 | 31 | 1 | 6.2 |  |
| CC(C)(C(=O)N1CCOCC1)c1ccc2c(-c3ccc(F)cc3)cc(C(N)=O)nc2c1 | 143 (≈ 60.3 µg/mL) |  | 32 |  | 20.6 |  |
| Cc1cnn(-c2cc(C(N)=O)nc3cc(CN4C(=O)CCC4=O)ccc23)c1 | 99 (≈ 36 µg/mL) | > 30 |  | 54 |  |  |
| NC(=O)c1cc(-c2ccc(F)cc2)c2ccc(CNCC(F)(F)F)cc2n1 | 6 (≈ 2.26 µg/mL) | > 30 | 24 | 50 | 10.2 |  |
| Cc1ccn(-c2cc(C(N)=O)nc3cc(CN4C(=O)CCC4=O)ccc23)n1 | 46 (≈ 16.7 µg/mL) |  | 30 |  | > 60 | IC50 [10]: > 5 µM; efflux ratio (P-gp (ABCB1)): 18 |
| Cc1cnn(Cc2ccc3c(-c4ccc(F)cc4)cc(C(N)=O)nc3c2)c1 | < 2 | 16.7 | 27 | 53 | 1.9 |  |
| CC1CCN(c2cc(C(N)=O)nc3cc(CN4C(=O)CCC4=O)ccc23)CC1 | < 2 |  |  |  |  |  |
| CC1CC=C(c2cc(C(N)=O)nc3cc(CN4C(=O)CCC4=O)ccc23)CC1 (racemic) | < 1 | 0.6 | 33 | 115 | 27 |  |
| COC1CC=C(c2cc(C(N)=O)nc3cc(CN4C(=O)CCC4=O)ccc23)CC1 (racemic) | 125 (≈ 49.2 µg/mL) |  | 32 |  | > 60 |  |
| NC(=O)c1cc(-c2ccc(F)cc2)c2ccc(C(N3CCOCC3)C(F)(F)F)cc2n1 (racemic) | < 2 |  | 28 |  | 11.2 | IC50 [10]: 0.041 µM |

The next lines start with results.

| solubility ([1]; read-out: solubility) [µM] | EC50 [3] [µM] | Papp [4] [×10⁻⁶ cm/s] | Emax at 30 µM (PXR (NR1I2)) [%] | Structure (SMILES) | IC50 [5] [µM] | further results |
| --- | --- | --- | --- | --- | --- | --- |
| 142 (≈ 59.6 µg/mL) |  | 29 |  | Cn1cc(-c2cc(C(N)=O)nc3cc(CN4CCO[C@@H](C(F)(F)F)C4)ccc23)cn1 | > 60 | IC50 [6]: 7.8 µM; IC50 [7]: > 30 µM; IC50 [8]: 22 µM; bioavailability [9]: 100% |
| 150 (≈ 56.6 µg/mL) |  | 24 |  | CCn1cc(-c2cc(C(N)=O)nc3cc(CN4C(=O)CCC4=O)ccc23)cn1 | 27 |  |
| 162 (≈ 58.9 µg/mL) |  | 30 |  | Cn1cc(-c2cc(C(N)=O)nc3cc(CN4C(=O)CCC4=O)ccc23)cn1 |  |  |
| 141 (≈ 52.5 µg/mL) |  | 30 |  | Cc1ncc(CCc2ccc3c(-c4cnn(C)c4)cc(C(N)=O)nc3c2)cn1 | > 60 |  |
| 105 (≈ 36.4 µg/mL) |  | 36 |  | Cn1cc(Cc2ccc3c(-c4cnn(C)c4)cc(C(N)=O)nc3c2)cn1 | > 60 |  |
| 2 (≈ 0.867 µg/mL) |  | 24 |  | NC(=O)c1cc(-c2ccc(F)cc2)c2ccc(CN3CCOC(C(F)(F)F)C3)cc2n1 (racemic) | 5.5 |  |
| 105 (≈ 45.4 µg/mL) |  | 27 |  | NC(=O)c1cc(-c2ccc(F)cc2)c2ccc(CN3CCNC(C(F)(F)F)C3)cc2n1 (racemic) | 11.2 |  |
| 175 (≈ 64 µg/mL) | > 30 |  | 1 | CC1CN(Cc2ccc3c(-c4cnn(C)c4)cc(C(N)=O)nc3c2)CCO1 (racemic) | > 60 |  |
| 142 (≈ 55.9 µg/mL) | 29 | 34 | 51 | CC(C)C1CN(Cc2ccc3c(-c4cnn(C)c4)cc(C(N)=O)nc3c2)CCO1 (racemic) | 23 | IC50 [10]: 0.023 µM; efflux ratio (P-gp (ABCB1)): 1.3 |
| 193 (≈ 77.5 µg/mL) |  |  |  | Cn1cc(-c2cc(C(N)=O)nc3cc(CN4CCOC(C(F)F)C4)ccc23)cn1 (racemic) |  | IC50 [10]: 0.067 µM |
| 103 (≈ 39.1 µg/mL) | > 30 |  | 26 | CC1CN(Cc2ccc3c(-c4ccc(F)cc4)cc(C(N)=O)nc3c2)CCO1 (racemic) | 5.5 |  |
| 175 (≈ 68.5 µg/mL) |  | 29 |  | Cn1cc(-c2cc(C(N)=O)nc3cc(CN4CCOC(C5CC5)C4)ccc23)cn1 (racemic) | 51 | IC50 [10]: 0.032 µM |
| 132 (≈ 55.4 µg/mL) |  | 30 |  | Cn1cc(-c2cc(C(N)=O)nc3cc(CN4CCOC(C(F)(F)F)C4)ccc23)cn1 (racemic) | 19 |  |
| 107 (≈ 45.8 µg/mL) | 19 | 29 | 75 | CC(c1ccc2c(-c3cnn(C)c3)cc(C(N)=O)nc2c1)c1cnn(CC(F)(F)F)c1 (racemic) | 10 | IC50 [10]: 0.011 µM; efflux ratio (P-gp (ABCB1)): 18 |
| 175 (≈ 73.2 µg/mL) |  | 29 |  | Cn1cc(-c2cc(C(N)=O)nc3cc(CN4CCNC(C(F)(F)F)C4)ccc23)cn1 (racemic) | > 20 | IC50 [10]: 0.122 µM |
